In patent US8450317B2, “CXCR3 receptor antagonists” (Boehringer Ingelheim International GmbH, priority 2009, dated 2013):

Target: CXCR3 (Macaca fascicularis, UniProt A0A2K5UV19)
Assay: functional cellular assay measuring calcium flux in CXCR3 transfected cells (block of CXCR3/IP-10 interaction)
Type: cell-based, Cyno
Conditions: IP-10 induced intracellular calcium flux; Cyno-CHO cells stably expressing recombinant CXCR3 and G-alpha-16; IP-10 at EC80; read-out: IC50
How it was run: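 Cyno-CHO cells stably expressing CXCR3 and G-alpha-16, loaded with Ca-4 dye in HBSS/10 mM HEPES pH 7.4 with 2 mM probenecid for 1 h at 37° C. Compound (final 10 microM) preincubated 15 min at room temperature, then IP-10 at EC80 added; calcium flux read at 480/540 nm.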

Chain of CXCR3 (A0A2K5UV19 entry or part of it): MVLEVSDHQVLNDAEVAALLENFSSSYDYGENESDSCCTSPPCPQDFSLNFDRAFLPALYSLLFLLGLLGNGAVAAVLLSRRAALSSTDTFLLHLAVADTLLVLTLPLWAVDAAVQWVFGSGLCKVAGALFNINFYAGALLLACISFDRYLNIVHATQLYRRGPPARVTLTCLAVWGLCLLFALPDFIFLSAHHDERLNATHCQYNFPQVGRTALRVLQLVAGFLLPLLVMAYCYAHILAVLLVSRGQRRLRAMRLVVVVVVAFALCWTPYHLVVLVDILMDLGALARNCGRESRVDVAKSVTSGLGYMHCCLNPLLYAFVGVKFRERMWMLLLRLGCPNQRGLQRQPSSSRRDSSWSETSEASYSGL

Structure (SMILES) | IC50
O=C(Cn1ccc2cccnc21)N1CCN(c2ccccc2N2Cc3ccccc3C2=O)CC1 [2-{2-[4-(2-Pyrrolo[2,3-b]pyridin-1-yl-acetyl)-piperazin-1-yl]-phenyl}-2,3-dihydro-isoindol-1-one] | 48 nM
Cc1cc(C)n(CC(=O)N2CCN(c3ccccc3-c3ccc(C#N)cc3)CC2)n1 [2′-{4-[2-(3,5-Dimethyl-pyrazol-1-yl)-acetyl]-piperazin-1-yl}-biphenyl-4-carbonitrile] | 100 nM
COc1ccc(C(=O)NCC(=O)N2CCN(c3ccccc3-c3cnc(N4CCOCC4)nc3)CC2)cc1OC [3,4-Dimethoxy-N-(2-{4-[2-(2-morpholin-4-yl-pyrimidin-5-yl)-phenyl]-piperazin-1-yl}-2-oxo-ethyl)-benzamide] | 68 nM
COc1ncc(-c2cc(C#N)ccc2N2CCN(C(=O)Cn3nc(C)cc3C)CC2)cn1 [4-{4-[2-(3,5-Dimethyl-pyrazol-1-yl)-acetyl]-piperazin-1-yl}-3-(2-methoxy-pyrimidin-5-yl)-benzonitrile] | 150 nM
CSc1ncc(-c2cc(C#N)ccc2N2CCN(C(=O)Cn3nc(C)cc3C)CC2)cn1 [4-{4-[2-(3,5-Dimethyl-pyrazol-1-yl)-acetyl]-piperazin-1-yl}-3-(2-methylsulfanyl-pyrimidin-5-yl)-benzonitrile] | 36 nM
Cc1cc(C)n(CC(=O)N2CCN(c3ccc(C#N)cc3-c3cnc(N4CCOCC4)nc3)CC2)n1 [4-{4-[2-(3,5-Dimethyl-pyrazol-1-yl)-acetyl]-piperazin-1-yl}-3-(2-morpholin-4-yl-pyrimidin-5-yl)-benzonitrile] | 18 nM
Cc1cn(CC(=O)N2CCN(c3ccccc3-c3ccc(C#N)nc3)CC2)c(C)n1 [5-(2-{4-[2-(2,4-Dimethyl-imidazol-1-yl)-acetyl]-piperazin-1-yl}-phenyl)-pyridine-2-carbonitrile] | 47 nM
Cc1cc(C)n(CC(=O)N2CCN(c3ccccc3-c3ccc(C#N)nc3)CC2)n1 [5-(2-{4-[2-(3,5-Dimethyl-pyrazol-1-yl)-acetyl]-piperazin-1-yl}-phenyl)-pyridine-2-carbonitrile] | 18 nM
Cc1cc(C)n(CC(=O)N2CCN(c3ccccc3-c3cnc(C#N)nc3)CC2)n1 [5-(2-{4-[2-(3,5-Dimethyl-pyrazol-1-yl)-acetyl]-piperazin-1-yl}-phenyl)-pyrimidine-2-carbonitrile] | 43 nM
Cc1cc(C(F)(F)F)nn1CC(=O)N1CCN(c2ccccc2-c2ccc(C#N)nc2)CC1 [5-(2-{4-[2-(5-Methyl-3-trifluoromethyl-pyrazol-1-yl)-acetyl]-piperazin-1-yl}-phenyl)-pyridine-2-carbonitrile] | 71 nM
N#Cc1ccc(-c2ccccc2N2CCN(C(=O)CNc3nccs3)CC2)cn1 [5-(2-{4-[2-(Thiazol-2-ylamino)-acetyl]-piperazin-1-yl}-phenyl)-pyridine-2-carbonitrile] | 47 nM
C[C@@H]1CN(c2ccc(F)cc2C(=O)Nc2nc3c(s2)CN(C)CC3)CCN1C(=O)Cn1ccc2cccnc21 [5-fluoro-2-[(3R)-3-methyl-4-(1H-pyrrolo[2,3-b]pyridin-1-ylacetyl)piperazin-1-yl]-N-(5-methyl-4,5,6,7-tetrahydro[1,3]thiazolo[5,4-c]pyridin-2-yl)benzamide] | 20 nM
C[C@H]1CN(c2ccc(F)cc2C(=O)Nc2nc3c(s2)CN(C)CC3)CCN1C(=O)Cn1ccc2cccnc21 [5-fluoro-2-[(3S)-3-methyl-4-(1H-pyrrolo[2,3-b]pyridin-1-ylacetyl)piperazin-1-yl]-N-(5-methyl-4,5,6,7-tetrahydro[1,3]thiazolo[5,4-c]pyridin-2-yl)benzamide] | 17 nM
C[C@@H]1CN(c2ccc(F)cc2C(=O)Nc2nc3c(s2)CN(C)CC3)CCN1C(=O)Cn1c(=O)[nH]c2ccccc21 [5-fluoro-2-{(3R)-3-methyl-4-[(2-oxo-2,3-dihydro-1H-benzimidazol-1-yl)acetyl]piperazin-1-yl}-N-(5-methyl-4,5,6,7-tetrahydro[1,3]thiazolo[5,4-c]pyridin-2-yl)benzamide] | 18 nM
C[C@@H]1CN(c2ccc(F)cc2C(=O)Nc2nc3c(s2)CN(C)CC3)CCN1C(=O)CN1CCCCC1=O [5-fluoro-2-{(3R)-3-methyl-4-[(2-oxopiperidin-1-yl)acetyl]piperazin-1-yl}-N-(5-methyl-4,5,6,7-tetrahydro[1,3]thiazolo[5,4-c]pyridin-2-yl)benzamide] | 20 nM
CC(C)C(=O)N(C)CC(=O)N1CCN(c2ccc(F)cc2C(=O)Nc2nc3c(s2)CN(C)CC3)C[C@H]1C [5-fluoro-2-{(3R)-3-methyl-4-[N-methyl-N-(2-methylpropanoyl)glycyl]piperazin-1-yl}-N-(5-methyl-4,5,6,7-tetrahydro[1,3]thiazolo[5,4-c]pyridin-2-yl)benzamide] | 19 nM
C[C@H]1CN(c2ccc(F)cc2C(=O)Nc2nc3c(s2)CN(C)CC3)CCN1C(=O)CN1Cc2ccccc2C1=O [5-fluoro-2-{(3S)-3-methyl-4-[(1-oxo-1,3-dihydro-2H-isoindol-2-yl)acetyl]piperazin-1-yl}-N-(5-methyl-4,5,6,7-tetrahydro[1,3]thiazolo[5,4-c]pyridin-2-yl)benzamide] | 15 nM

The remaining compounds from weak to strong by IC50, led by results:

IC50 | Structure (SMILES)
15 nM | Cc1cc(C)n(CC(=O)N2CCN(c3ccc(F)cc3C(=O)Nc3nc4c(s3)CN(C)CC4)C[C@H]2C)n1 [2-{(3R)-4-[(3,5-dimethyl-1H-pyrazol-1-yl)acetyl]-3-methylpiperazin-1-yl}-5-fluoro-N-(5-methyl-4,5,6,7-tetrahydro[1,3]thiazolo[5,4-c]pyridin-2-yl)benzamide]
15 nM | C[C@@H]1CN(c2ccc(F)cc2C(=O)Nc2nc3c(s2)CN(C)CC3)CCN1C(=O)Cn1cnc2cccnc21 [5-fluoro-2-[(3R)-4-(3H-imidazo[4,5-b]pyridin-3-ylacetyl)-3-methylpiperazin-1-yl]-N-(5-methyl-4,5,6,7-tetrahydro[1,3]thiazolo[5,4-c]pyridin-2-yl)benzamide]
15 nM | C[C@H]1CN(c2ccc(F)cc2C(=O)Nc2nc3c(s2)CN(C)CC3)CCN1C(=O)Cn1cnc2cccnc21 [5-fluoro-2-[(3S)-4-(3H-imidazo[4,5-b]pyridin-3-ylacetyl)-3-methylpiperazin-1-yl]-N-(5-methyl-4,5,6,7-tetrahydro[1,3]thiazolo[5,4-c]pyridin-2-yl)benzamide]
15 nM | C[C@@H]1CN(c2ccc(F)cc2C(=O)Nc2nc3c(s2)CN(C)CC3)CCN1C(=O)CN1Cc2ccccc2C1=O [5-fluoro-2-{(3R)-3-methyl-4-[(1-oxo-1,3-dihydro-2H-isoindol-2-yl)acetyl]piperazin-1-yl}-N-(5-methyl-4,5,6,7-tetrahydro[1,3]thiazolo[5,4-c]pyridin-2-yl)benzamide]
12 nM | COc1cc(NC(=O)c2cc(F)ccc2N2CCN(C(=O)Cn3nc(C)cc3C)[C@@H](C)C2)ccn1 [2-{(3S)-4-[(3,5-dimethyl-1H-pyrazol-1-yl)acetyl]-3-methylpiperazin-1-yl}-5-fluoro-N-(2-methoxypyridin-4-yl)benzamide]
12 nM | Cc1cc(C)n(CC(=O)N2CCN(c3ccc(F)cc3C(=O)Nc3nc4c(s3)CN(C)CC4)C[C@@H]2C)n1 [2-{(3S)-4-[(3,5-dimethyl-1H-pyrazol-1-yl)acetyl]-3-methylpiperazin-1-yl}-5-fluoro-N-(5-methyl-4,5,6,7-tetrahydro[1,3]thiazolo[5,4-c]pyridin-2-yl)benzamide]
11 nM | COc1cc(NC(=O)c2cc(F)ccc2N2CCN(C(=O)Cn3cnc4cccnc43)[C@@H](C)C2)ccn1 [5-fluoro-2-[(3S)-4-(3H-imidazo[4,5-b]pyridin-3-ylacetyl)-3-methylpiperazin-1-yl]-N-(2-methoxypyridin-4-yl)benzamide]
10 nM | CC1CN(c2ccc(F)cc2-c2cnc(N3CCC(S(C)(=O)=O)CC3)nc2)CCN1C(=O)CN1Cc2ccccc2C1=O (centres unmarked) [2-{2-[4-(4-fluoro-2-{2-[4-(methylsulfonyl)piperidin-1-yl]pyrimidin-5-yl}phenyl)-2-methylpiperazin-1-yl]-2-oxoethyl}-2,3-dihydro-1H-isoindol-1-one]
9 nM | CS(=O)(=O)C1CCN(c2ncc(-c3cc(F)ccc3N3CCN(C(=O)CN4Cc5ccccc5C4=O)CC3)cn2)CC1 [2-{2-[4-(4-fluoro-2-{2-[4-(methylsulfonyl)piperidin-1-yl]pyrimidin-5-yl}phenyl)piperazin-1-yl]-2-oxoethyl}-2,3-dihydro-1H-isoindol-1-one]
8 nM | COc1cc(NC(=O)c2cc(F)ccc2N2CCN(C(=O)Cn3nc(C)cc3C)[C@H](C)C2)ccn1 [2-{(3R)-4-[(3,5-dimethyl-1H-pyrazol-1-yl)acetyl]-3-methylpiperazin-1-yl}-5-fluoro-N-(2-methoxypyridin-4-yl)benzamide]
8 nM | CNc1ncc(-c2cc(C#N)ccc2N2CCN(C(=O)Cn3ccc4cccnc43)CC2)cn1 [3-(2-Methylamino-pyrimidin-5-yl)-4-[4-(2-pyrrolo[2,3-b]pyridin-1-yl-acetyl)-piperazin-1-yl]-benzonitrile]
8 nM | N#Cc1ccc(N2CCN(C(=O)Cn3ccc4cccnc43)CC2)c(-c2cnc(N3CCOCC3)nc2)c1 [3-(2-Morpholin-4-yl-pyrimidin-5-yl)-4-[4-(2-pyrrolo[2,3-b]pyridin-1-yl-acetyl)-piperazin-1-yl]-benzonitrile]
7 nM | COc1ncc(-c2cc(C#N)ccc2N2CCN(C(=O)Cn3ccc4cccnc43)CC2)cn1 [3-(2-Methoxy-pyrimidin-5-yl)-4-[4-(2-pyrrolo[2,3-b]pyridin-1-yl-acetyl)-piperazin-1-yl]-benzonitrile]
7 nM | COc1cc(NC(=O)c2cc(F)ccc2N2CCN(C(=O)Cn3cnc4cccnc43)[C@H](C)C2)ccn1 [5-fluoro-2-[(3R)-4-(3H-imidazo[4,5-b]pyridin-3-ylacetyl)-3-methylpiperazin-1-yl]-N-(2-methoxypyridin-4-yl)benzamide]
4 nM | CSc1ncc(-c2cc(C#N)ccc2N2CCN(C(=O)Cn3ccc4cccnc43)CC2)cn1 [3-(2-Methylsulfanyl-pyrimidin-5-yl)-4-[4-(2-pyrrolo[2,3-b]pyridin-1-yl-acetyl)-piperazin-1-yl]-benzonitrile]
